Results on one compound are retold here after US20140357688A1, “METHOD FOR INHIBITING EZH2 EXPRESSION IN BREAST CANCER CELLS” (Yung Shin Pharm. Ind. Co., Ltd., priority 2013, published 2014).

Holding throughout (type): cell-based, human
Assay [1] relates to Bmi1. Put plainly: Western blot of PRC1 components in MDA-MB-468 cells. The method, then:
(§1) (A)(B) Cells were treated with indicated concentration of YC-1 for 24 h (A) or 3 μM of YC-1 for indicated time (B). Cells were harvested and performed with western blotting analysis. […] The levels of protein expression were quantitated and shown under blots. (C) Cells were transfected with EZH2 shRNA for 0, 1, 2, 3, and 4 days and collected for determination of cell viability (left) and protein expression (right). (D)(E) After 4 days of EZH2 knockdown, cells were incubated with 3 μM YC-1 for 4 h and detected cell viability (D) and protein contents (E). (F) Tumor specimens were isolated and protein was extracted for western blot analysis.
(§2) Cells were lysed in PBS containing proteinase inhibitor and phosphatase inhibitors and sonication. Protein concentration was measured using the Bio-Rad protein assay kit (Bio-Rad Laboratories, Hercules, Calif., USA). Lysate protein was separated by electrophoresis of SDS-PAGE and transferred to Immobilon P membrane (EMD Millipore). The membranes were incubated with appropriate primary antibodies and horseradish peroxidase-conjugated secondary antibodies (EMD Millipore). The signaling was visualized using Chemiluminescence substrate kit (EMD Millipore) and collected by the Luminesence image analyzer, LAS4000 (Fuji Photo Film Co., Tokyo, Japan). The band intensities were analyzed and quantified by the Multi Gauge software (Fuji Photo Film).

Assay [2] deals with Ring1B. The description is as above. The method, then:
as §1, §2

Assay [3] has as its system Ring1A. The description is as above. The method, then: as §1, §2
Assay [4] relates to CDK1. Put plainly: Western blot of CDK1 activation. The settings on record: 3 μM YC-1. The method, then: (A) MDA-MB-468 cells were incubated with 3 μM YC-1 for indicated time. Cells were harvested for the detection of phospho-Akt (Ser473), Akt, and PCNA. (B) Cells were pretreated with LY294002 (LY, 10 μM) for 1 h followed by 3 μM YC-1 induction for 6 h. (C) MDA-MB-468 cells were incubated with 3 μM YC-1 for indicated time. Cells were harvested for the detection of phospho-CDK1 (Thr161), CDK1, phospho-EZH2 ([…]), EZH2, and β-actin expression with western blot analysis. Levels of EZH2 phosphorylation were calculated by phospho-EZH2 normalized by total EZH2. (D) Cells were treated with YC-1 for 6 h in the absence or presence of roscovitine (Rosc, 20 μM). Cells were harvested and analyzed by western blotting for protein expression. (E) CDK1 knockdown of MDA-MB-468 cells were induced with 3 μM YC-1 for 4 h and followed by western blot analysis.
Cells were lysed in PBS containing proteinase inhibitor and phosphatase inhibitors and sonication. Protein concentration was measured using the Bio-Rad protein assay kit (Bio-Rad Laboratories, Hercules, Calif., USA). Lysate protein was separated by electrophoresis of SDS-PAGE and transferred to Immobilon P membrane (EMD Millipore). […] The band intensities were analyzed and quantified by the Multi Gauge software (Fuji Photo Film).
For orientation: A western blot detects proteins with antibodies after separation by electrophoresis.

Assay [5] concerns H3K27me3. Put plainly: Western blot of H3K27me3 in MDA-MB-468 cells. The method, then: as §1, §2
The subject of assay [6] is c-Cbl. Nature of the assay: Western blot of c-Cbl phosphorylation and expression. The method, then:
(A) c-Cbl knockdown MDA-MB-468 cells were treated with 3 μM YC-1 for 4 h. Cell were harvested for detection of protein expression. (B) Cells were treated with 3 μM YC-1 for indicated time. Cells were collected and c-Cbl phosphorylation was detected. […] (D) Cells were pretreated with MG-132 and followed by 3 μM YC-1 induction for indicated time. Cells were harvested and lysed for immunoprecipitation assay. The association between c-Cbl and EZH2 were determined by western blotting analysis and probed with anti-EZH2 or anti-c-Cbl antibody. Membranes were stripped and reprobed with anti-c-Cbl or anti-EZH2 antibody to check the input. […] Then cells were collected and lysate protein was subjected for the detection of the c-Cbl-EZH2 complexes. Cells were lysed in PBS containing proteinase inhibitor and phosphatase inhibitors and sonication. Protein concentration was measured using the Bio-Rad protein assay kit (Bio-Rad Laboratories, Hercules, Calif., USA). Lysate protein was separated by electrophoresis of SDS-PAGE and transferred to Immobilon P membrane (EMD Millipore). The membranes were incubated with appropriate primary antibodies and horseradish peroxidase-conjugated secondary antibodies (EMD Millipore). The signaling was visualized using Chemiluminescence substrate kit (EMD Millipore) and collected by the Luminesence image analyzer, LAS4000 (Fuji Photo Film Co., Tokyo, Japan). The band intensities were analyzed and quantified by the Multi Gauge software (Fuji Photo Film).

Assay [7] concerns Hs578T. Put plainly: MTT cell viability assay. As to the method:
(§3) Human breast cancer cells, MDA-MB-468, MDA-MB-157, MDA-MB-231, MDA-MB-453, and Hs578T, and immortalized mammary epithelial cell lines, 184A1 and MCF-10A, were obtained from American Type Culture Collection (Manassas, Va., USA). MDA-MB-468, MDA-MB-157, MDA-MB-231, and MDA-MB-453 were cultured in DMEM/F12 medium supplemented with 10% FBS, 100 U/ml penicillin, and 100 μg/ml streptomycin. Hs578T was cultured in RPMI 1640 medium containing 10% FBS, 2 mM L-glutamine, 100 U/ml penicillin, and 100 μg/ml streptomycin. 184A1 and MCF-10A were cultured in DMEM/F12 medium supplemented with 5% horse serum, 0.5 μg/ml hydrocortisone, 10 μg/ml insulin, 20 ng/ml epidermal growth factor, 0.1 μg/ml cholera enterotoxin, 2 mM L-glutamine, 100 U/ml penicillin, and 100 μg/ml streptomycin. All cells were maintained in a humidified incubator containing 5% CO2. For hypoxia treatment, cells were incubated in a chamber flushed with 1% 02, 5% CO2, and 94% N2 at 37° C.
(§4) Cell viability was measured by 3-(4,5-Dimethyl-2-thiazolyl)2,5-diphenyl-2H-tetrazolium bromide (MTT) assay.

Assay [8] relates to MDA-MB-231. Nature of the assay: MTT cell viability assay. The settings on record: triple negative breast cancer cell line MDA-MB-231. The method, then:
as §3, §4
A general note: Tetrazolium assays rely on reduction of a dye to a coloured formazan, in cell work by metabolically active cells.

In assay [9] the test system is MDA-MB-453. Nature of the assay: MTT cell viability assay. The method, then:
as §3, §4

For assay [10], the system named is MDA-MB-157. Put plainly: MTT cell viability assay. As to the method:
as §3, §4

As for `OCc1ccc(-c2nn(Cc3ccccc3)c3ccccc23)o1` [YC-1, 3-(5′-hydroxymethyl-2′-furyl)-1-benzyl indazole], in assay [1], the Bmi1 protein result is given as “decreased”. The Ring1B protein entry in [2] is listed as “decreased”. The Ring1A protein entry in assay [3] is “decreased”. In addition, the CDK1 activation result in [4] is recorded as “could induce the activation”. In addition, in [5], the H3K27me3 level entry is given as “kept unchanged”. Further, the c-Cbl protein expression result in [6] (3 μM YC-1) was “inhibited”. Further, in assay [6] (3 μM YC-1, after 1 h), the “c-Cbl Tyr731 and Tyr774 phosphorylation” value is on record as “rapid phosphorylation”. Further, the “effect on cell viability” value was “no effect” in assay [7], “slight inhibitory effect” in [8], “no effect” in assay [9] and “no effect” in [10].
